Test results published in article PMC3176812, “Co-Crystal Structures of Inhibitors with MRCKβ, a Key Regulator of Tumor Cell Invasion” (PLoS ONE, 2011).

Tests used:
MRCKβ = target: T1, MRCKβ (Homo sapiens, UniProt Q9Y5S2); assay: IMAP fluorescence polarization in vitro kinase assay, MRCKβ; type: biochemical; settings: for Inhibition at 3 µM (%) / Inhibition at 30 µM (%): MRCKβ in vitro kinase assay, ATP at enzyme Km (0.7 µM); for Inhibition at 3 µM (%): 3 µM inhibitor; for Inhibition at 30 µM (%): 30 µM inhibitor; for IC50: 10 point dose-response, 0.002–40 µM, 0.7 µM ATP; for inhibition at 3 µM: read-out: Inhibition at 3 µM (%); for inhibition at 30 µM: read-out: Inhibition at 30 µM (%)
T1 construct: purchased Millipore

MRCK = test system: MRCK; design: method as in earlier work; settings: >140 times higher ATP concentration; ref 27 (Amano et al.); cited from earlier work
MRCKα = target: T2, MRCKα (Homo sapiens, UniProt Q5VT25); assay: IMAP fluorescence polarization in vitro kinase assay, MRCKα; type: biochemical; settings: 10 point dose-response, 0.002–40 µM, 0.7 µM ATP
T2 construct: purchased Millipore
Protocol: Activity assays for MRCKα and β were performed using an IMAP fluorescence polarization assay kit (Molecular Devices Inc.). […] Dose response inhibition analyses were performed over a drug concentration range from 0.002–40 µM, and single point inhibition was assessed at 3 or 30 µM drug.

[1] = test system: MDA MB 231 breast cancer cells; assay: 3-dimensional inverse matrigel invasion assay; type: cell-based; settings: 5 days
Excerpt: The contribution of MRCK to tumor cell invasion was examined by knocking down both MRCKα and MRCKβ in MB 231 breast cancer cells and determining the effects in a 3-dimensional inverse matrigel invasion assay. The combined MRCKα plus MRCKβ knockdown could be achieved either with two siRNA duplexes targeting each mRNA transcript (MRCKα+β) or with a single siRNA duplex (MRCKα/β) that targets both (Figure 1A). Following plating on the underside of Transwell inserts containing a thick layer of matrigel and allowing 5 days for invasion through the porous filter and into the matrigel, the extent of MDA MB 231 cell invasion was determined by fixing and staining cells with propidium iodide, followed by confocal microscopic optical sectioning at 10 µm intervals (Figure 1B).
Cell invasion assays were as previously described. Complete Matrigel was thawed on ice, diluted 1∶1 with PBS and then 100 µl of diluted matrigel pipetted into Transwell inserts in a 24 well tissue culture plate and left to incubate for 30 minutes at 37°C to set. During this time cell suspensions of 3×10^5 cells per ml from each condition were prepared in their normal growth medium. When the Matrigel had set, the Transwell inserts were inverted and 100 µl of cell suspension pipetted onto the filter. […] ImageJ software was used for quantification. […]

T1 sequence (Q9Y5S2 whole entry): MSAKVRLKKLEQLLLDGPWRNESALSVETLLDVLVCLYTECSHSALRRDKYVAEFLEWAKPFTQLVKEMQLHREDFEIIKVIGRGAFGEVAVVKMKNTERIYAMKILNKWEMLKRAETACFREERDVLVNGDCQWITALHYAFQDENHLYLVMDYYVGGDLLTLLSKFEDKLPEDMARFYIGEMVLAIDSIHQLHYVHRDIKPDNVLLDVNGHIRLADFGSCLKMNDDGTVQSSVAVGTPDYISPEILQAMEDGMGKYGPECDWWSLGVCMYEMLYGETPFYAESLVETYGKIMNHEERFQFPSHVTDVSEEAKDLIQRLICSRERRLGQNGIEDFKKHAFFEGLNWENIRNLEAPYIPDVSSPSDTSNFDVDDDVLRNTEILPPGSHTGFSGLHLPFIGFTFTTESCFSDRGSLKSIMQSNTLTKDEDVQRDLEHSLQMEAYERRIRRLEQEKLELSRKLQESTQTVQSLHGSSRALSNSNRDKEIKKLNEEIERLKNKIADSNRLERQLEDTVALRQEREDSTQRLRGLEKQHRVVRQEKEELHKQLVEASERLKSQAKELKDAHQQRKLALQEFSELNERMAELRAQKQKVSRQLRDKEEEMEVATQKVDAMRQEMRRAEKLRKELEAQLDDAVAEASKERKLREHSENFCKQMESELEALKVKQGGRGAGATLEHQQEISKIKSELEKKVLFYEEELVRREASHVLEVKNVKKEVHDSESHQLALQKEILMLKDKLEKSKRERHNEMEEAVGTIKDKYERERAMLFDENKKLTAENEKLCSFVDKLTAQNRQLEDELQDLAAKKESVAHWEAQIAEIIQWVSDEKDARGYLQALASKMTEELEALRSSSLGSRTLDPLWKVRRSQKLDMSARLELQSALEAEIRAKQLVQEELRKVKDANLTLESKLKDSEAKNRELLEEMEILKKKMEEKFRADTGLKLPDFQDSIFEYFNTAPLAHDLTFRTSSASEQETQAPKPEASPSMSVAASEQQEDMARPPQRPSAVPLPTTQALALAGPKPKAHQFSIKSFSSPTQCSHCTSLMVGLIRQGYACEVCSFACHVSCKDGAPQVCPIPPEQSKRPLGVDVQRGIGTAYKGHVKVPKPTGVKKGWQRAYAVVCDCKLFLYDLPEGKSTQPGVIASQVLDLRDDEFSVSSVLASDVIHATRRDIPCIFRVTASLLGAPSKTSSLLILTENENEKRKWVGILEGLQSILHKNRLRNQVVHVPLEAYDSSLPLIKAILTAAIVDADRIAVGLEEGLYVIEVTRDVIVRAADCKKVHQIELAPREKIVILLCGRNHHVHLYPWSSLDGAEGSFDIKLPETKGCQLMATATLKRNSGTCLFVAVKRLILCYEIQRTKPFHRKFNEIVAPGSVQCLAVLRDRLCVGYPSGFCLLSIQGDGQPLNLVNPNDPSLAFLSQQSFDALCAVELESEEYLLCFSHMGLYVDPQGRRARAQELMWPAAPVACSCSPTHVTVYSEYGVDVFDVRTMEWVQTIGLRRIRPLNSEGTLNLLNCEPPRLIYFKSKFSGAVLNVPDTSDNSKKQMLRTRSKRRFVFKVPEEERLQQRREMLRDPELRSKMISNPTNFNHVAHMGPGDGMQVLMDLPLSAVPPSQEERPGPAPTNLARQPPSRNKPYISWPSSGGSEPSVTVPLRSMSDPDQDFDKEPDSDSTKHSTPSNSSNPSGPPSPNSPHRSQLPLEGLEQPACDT
T2 sequence (Q5VT25 whole entry): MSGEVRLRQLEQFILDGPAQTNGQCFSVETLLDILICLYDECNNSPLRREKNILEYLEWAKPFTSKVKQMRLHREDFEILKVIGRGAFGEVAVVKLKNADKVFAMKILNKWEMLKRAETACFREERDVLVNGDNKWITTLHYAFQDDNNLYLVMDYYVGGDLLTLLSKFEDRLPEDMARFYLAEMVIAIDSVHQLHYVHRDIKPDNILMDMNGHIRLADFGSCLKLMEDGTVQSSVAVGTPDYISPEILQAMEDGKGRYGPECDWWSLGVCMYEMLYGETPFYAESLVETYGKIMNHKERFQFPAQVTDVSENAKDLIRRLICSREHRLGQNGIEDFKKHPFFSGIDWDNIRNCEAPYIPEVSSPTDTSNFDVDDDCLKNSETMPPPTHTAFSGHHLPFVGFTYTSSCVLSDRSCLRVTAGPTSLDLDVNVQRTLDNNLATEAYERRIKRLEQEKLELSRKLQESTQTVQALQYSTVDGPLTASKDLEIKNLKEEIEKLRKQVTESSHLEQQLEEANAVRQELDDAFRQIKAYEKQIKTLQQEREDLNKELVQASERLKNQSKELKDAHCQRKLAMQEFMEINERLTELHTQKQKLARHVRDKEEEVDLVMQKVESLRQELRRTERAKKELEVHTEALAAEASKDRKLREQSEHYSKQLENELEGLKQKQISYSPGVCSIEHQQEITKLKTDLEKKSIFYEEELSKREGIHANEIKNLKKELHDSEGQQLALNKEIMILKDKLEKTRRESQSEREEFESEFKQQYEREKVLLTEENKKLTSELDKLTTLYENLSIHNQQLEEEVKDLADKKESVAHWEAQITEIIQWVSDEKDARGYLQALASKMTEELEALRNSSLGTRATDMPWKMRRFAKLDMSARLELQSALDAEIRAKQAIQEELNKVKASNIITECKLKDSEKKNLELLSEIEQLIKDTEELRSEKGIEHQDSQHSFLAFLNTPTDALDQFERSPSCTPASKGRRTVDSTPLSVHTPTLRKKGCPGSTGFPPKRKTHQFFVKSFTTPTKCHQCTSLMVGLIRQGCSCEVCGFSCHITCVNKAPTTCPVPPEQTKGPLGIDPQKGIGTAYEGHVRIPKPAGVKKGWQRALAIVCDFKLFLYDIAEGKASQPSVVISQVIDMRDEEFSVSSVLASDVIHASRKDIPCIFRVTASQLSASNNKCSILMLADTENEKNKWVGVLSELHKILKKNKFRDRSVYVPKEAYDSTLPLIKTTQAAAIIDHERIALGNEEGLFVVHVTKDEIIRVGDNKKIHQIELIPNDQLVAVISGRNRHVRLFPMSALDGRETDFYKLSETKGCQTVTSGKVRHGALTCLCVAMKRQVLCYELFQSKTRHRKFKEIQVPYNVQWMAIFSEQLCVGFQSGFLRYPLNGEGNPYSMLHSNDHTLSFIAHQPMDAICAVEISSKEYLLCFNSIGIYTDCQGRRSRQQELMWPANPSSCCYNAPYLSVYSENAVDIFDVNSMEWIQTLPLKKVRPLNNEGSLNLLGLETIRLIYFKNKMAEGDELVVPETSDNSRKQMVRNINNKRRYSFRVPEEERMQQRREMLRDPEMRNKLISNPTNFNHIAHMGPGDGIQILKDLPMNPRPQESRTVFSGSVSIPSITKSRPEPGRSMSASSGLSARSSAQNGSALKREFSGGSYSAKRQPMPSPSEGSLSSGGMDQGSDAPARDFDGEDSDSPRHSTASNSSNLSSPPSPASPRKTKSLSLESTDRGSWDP

Row | Molecule | Inhibition at 3 µM (%) (MRCKβ) | Inhibition at 30 µM (%) (MRCKβ) | further results
1 | CCn1cnc2c(Nc3cccc(Cl)c3)nc(N[C@H]3CCCC[C@H]3N)nc21 [Cdk1 Inhibitor, CGP74514A] | 87.2 | 100 | 
2 | CN(C)C[C@H]1CCn2c(c(C3=C(c4cn(C)c5ccccc45)C(=O)NC3=O)c3ccccc32)C1 [Ro-32-0432] | 85.2 | 68.2 | 
3 | COC(=O)[C@@]1(O)C[C@H]2O[C@]1(C)n1c3ccccc3c3c4c(c5c6ccccc6n2c5c31)C(=O)NC4 [K-252a, Nocardiopsis sp., K-252a] | 87.3 | 98.4 | 
4 | O=S(=O)(c1cccc2cnccc12)N1CCCNCC1 [Fasudil] |  |  | Inhibition of MRCK activity (MRCK): did not effectively inhibit MRCK activity
5 | NC(=O)Nc1sc(-c2ccc(F)cc2)cc1C(N)=O [TPCA-1, 2-[(aminocarbonyl)amino]-5-(4-fluorophenyl)-3-thiophenecarboxamide] |  |  | IC50 (MRCKβ): 1690 ± 130 nM; inhibition at 3 µM (MRCKβ): 50.1%; inhibition at 30 µM (MRCKβ): 88.9%; IC50 (MRCKα): 1040 ± 60 nM
6 | O=S(=O)(NCCNC/C=C/c1ccc(Br)cc1)c1cccc2cnccc12 [H-89] | 79.3 | 99.1 | 
7 | O=C1Nc2ccc3ncsc3c2/C1=C/c1cnc[nH]1 [PKR Inhibitor] | 80.1 | 100.5 | 
8 | Cdk1/2 Inhibitor III | 100 | 100 | 
9 | COc1ccc2c(c1)c(C1=C(c3c[nH]c4ccccc34)C(=O)NC1=O)cn2CCCN(C)C [Gö 6983] | 88.6 | 65.1 | 
10 | O=C1Cc2c([nH]c3ccc([N+](=O)[O-])cc23)-c2ccccc2N1 [Alsterpaullone] |  |  | inhibition at 3 µM (MRCKβ): 90.7%; inhibition at 30 µM (MRCKβ): 78.4%
11 | CN[C@@H]1C[C@H]2O[C@@](C)([C@@H]1OC)n1c3ccccc3c3c4c(c5c6ccccc6n2c5c31)C(=O)NC4 [Staurosporine] |  |  | inhibition at 3 µM (MRCKβ): 98.6%; inhibition at 30 µM (MRCKβ): 100%
12 | C[C@@H](N)[C@H]1CC[C@H](C(=O)Nc2ccncc2)CC1 [Y-27632] | 83.5 | 96.6 | IC50 (MRCKβ): 470 ± 30 nM; Invasion 40 µm above the transwell filter surface, combination with MRCKα/β knockdown ([1]; MDA MB 231 cells with MRCKα/β siRNA knockdown plus Y-27632 treatment): significantly more effective than either MRCKα/β knockdown or Y-27632 treatment alone; Invasion 40 µm above the transwell filter surface, normalized to NTC siRNA transfected cells ([1]; NTC siRNA transfected MDA MB 231 cells): significantly reduced invasion
13 | N#CCCc1ccc2c(c1)-c1[nH]c3ccc([N+](=O)[O-])cc3c1CC(=O)N2 [Alsterpaullone, 2-Cyanoethyl] | 98.4 | 94.8 | 
14 | CN(C)CCCn1cc(C2=C(c3c[nH]c4ccccc34)C(=O)NC2=O)c2ccccc21 [Bisindolylmaleimide I] | 87.9 |  | 
